Source: patent EP0505841A2, “Analgesic composition containing beta-carotene” (MILES INC., priority 1991, dated 1992)
“Also recorded” adds a separate entry of the source.

How the values were obtained:
[1] = system: Phenylquinone (PQ) Writhing; assay: Phenylquinone (PQ) writhing; assay type: in vivo, mice; conditions: for effect on the analgesia (pain relief effects) of aspirin: interaction term p. <.001; for writhing response, means: two-vehicle combination set at zero; for P.Q. WRITHING (INH. %) ± SEM: mice
Experimental: The test sample is administered orally (mg/kg) to a group of 8 mice one hour before injection of PQ (2 mg/kg intraperitonilly). Greater than 50 percent (>50) inhibition of the number of writhes per group of animals observed during 5 to 10 minutes after PQ, relative to a vehicle treated group, indicates possible analgesic activity. [Irwin, Samuel, Psychopharmacologia, 13:22-257, 1968.] A test was conducted using alpha-tocopherol and aspirin. […] All dosing was done orally (PO). […] Again the writhing response was set at zero for the two-vehicle combination.

paw edema = assay: Carrageenan paw edema, anti-inflammatory test; conditions: rats, p.o., 3 hrs after carrageenan
[2] = system: Prostaglandin and hydroxyicosatetraenoic acid (HETE) production; conditions: bovine seminal vesicles and kidney; cited from earlier work

SMILES: Cc1c(C)c2c(c(C)c1O)CCC(C)(CCCC(C)CCCC(C)CCCC(C)C)O2 (stereo not drawn) [Alpha-tocopherol, alpha-tocopherol]
- effect on the analgesia (pain relief effects) of aspirin ([1]; PO): antagonizes the pain relief effects of aspirin; also recorded: antagonism to the analgesia of aspirin
- effect on the analgesia (pain relief effects) of aspirin ([1]; PO, listed as Vitamin E): significant antagonistic effect
- writhing response, means ([1]; aspirin Veh., Vitamin E 100 mg.): 1
- writhing response, means ([1]; aspirin Veh., Vitamin E 300 mg.): 2
- P.Q. WRITHING (INH. %) ± SEM ([1]; PO, A₀ aspirin vehicle + E₁ alpha-tocopherol 300mg/kg): 3 ± 1%
- P.Q. WRITHING (INH. %) ± SEM ([1]; PO, A₀ aspirin vehicle + E₂ alpha-tocopherol 100mg/kg): 1 ± 1%
- P.Q. WRITHING (INH. %) ± SEM ([1]; PO, A₀ aspirin vehicle + E₃ alpha-tocopherol 30 mg/kg): 3 ± 1%
- P.Q. WRITHING (INH. %) ± SEM ([1]; PO, A₀ aspirin vehicle + E₅ alpha-tocopherol 3 mg/kg): 3 ± 1%

SMILES: CC(=O)Oc1ccccc1C(=O)O [Aspirin, aspirin]
- ED20 ([1]; Mus musculus, PO, also used as dose level A₁, read-out: ED₂₀): 8.3 mg/kg
- ED50 ([1]; Mus musculus, PO, also used as dose level A₂, read-out: ED₅₀): 25 mg/kg
- ED80 ([1]; Mus musculus, PO, also used as dose level A₃, read-out: ED₈₀): 75 mg/kg
- writhing response, means ([1]; aspirin ED20, Vitamin E Vehicle): 20
- writhing response, means ([1]; aspirin ED50, Vitamin E Vehicle): 48
- writhing response, means ([1]; aspirin ED80, Vitamin E Vehicle): 85
- P.Q. WRITHING (INH. %) ± SEM ([1]; PO, A₁ aspirin 8.3 mg/kg + E₀ alpha-tocopherol vehicle): 20 ± 1%
- P.Q. WRITHING (INH. %) ± SEM ([1]; PO, A₂ aspirin 25 mg/kg + E₀ alpha-tocopherol vehicle): 48 ± 2%
- P.Q. WRITHING (INH. %) ± SEM ([1]; PO, A₃ aspirin 75 mg/kg + E₀ alpha-tocopherol vehicle): 85 ± 2%
- Mean Paw Volumes (paw edema; A1 aspirin 10 mg/kg + B0 ß-carotene vehicle): 79.1 ml. x 10^-2
- Mean Paw Volumes (paw edema; A2 aspirin 30 mg/kg + B0 ß-carotene vehicle): 73.9 ml. x 10^-2
- Mean Paw Volumes (paw edema; A3 aspirin 100 mg/kg + B0 ß-carotene vehicle): 58.9 ml. x 10^-2
- Mean Paw Volumes (paw edema; A4 aspirin 300 mg/kg + B0 ß-carotene vehicle): 38.8 ml. x 10^-2

SMILES: CC1=C(/C=C/C(C)=C/C=C/C(C)=C/CO)C(C)(C)CCC1 [retinol]
- Prostaglandin and hydroxyicosatetraenoic acid (HETE) production [2]: considerably inhibited

SMILES: CC1=C(/C=C/C(C)=C/C=C/C(C)=C/C=C/C=C(C)/C=C/C=C(C)/C=C/C2=C(C)CCCC2(C)C)C(C)(C)CCC1 [β-Carotene, ß-carotene]
- Prostaglandin and hydroxyicosatetraenoic acid (HETE) production [2]: considerably inhibited
- Mean Paw Volumes (paw edema; A0 aspirin vehicle + B1 ß-carotene 10 mg/kg): 86.0(.24) ml. x 10^-2
- Mean Paw Volumes (paw edema; A0 aspirin vehicle + B2 ß-carotene 30 mg/kg): 86.5(.14) ml. x 10^-2
- Mean Paw Volumes (paw edema; A0 aspirin vehicle + B3 ß-carotene 100 mg/kg): 81.6(.16) ml. x 10^-2
- Mean Paw Volumes (paw edema; A0 aspirin vehicle + B4 ß-carotene 300 mg/kg): 81.9(.21) ml. x 10^-2
